Laboratory results from PubChem BioAssay (NCI).
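These data come from cells grown in 96-well plates and exposed to compound for 48 hours at five concentrations. The concentration for full growth arrest is given as TGI.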

Tests used:
Assay in all cases: NCI tumour cell line growth inhibition, 48 h
SN12C renal = system: SN12C renal
MDA-MB-435 = system: MDA-MB-435
LOX IMVI melanoma = system: LOX IMVI melanoma
RPMI-8226 leukemia = system: RPMI-8226 leukemia
HOP-62 NSCLC = system: HOP-62 NSCLC
TK-10 renal = system: TK-10 renal
HL-60(TB) leukemia = system: HL-60(TB) leukemia
DU-145 prostate = system: DU-145 prostate
SW-620 colon = system: SW-620 colon
NCI-H522 lung = system: NCI-H522 lung
NCI-H23 lung = system: NCI-H23 lung
SF-295 CNS = system: SF-295 CNS
SK-MEL-28 melanoma = system: SK-MEL-28 melanoma
U251 CNS = system: U251 CNS
NCI-H226 lung = system: NCI-H226 lung
HCT-15 colon = system: HCT-15 colon
SF-268 CNS = system: SF-268 CNS
ACHN renal = system: ACHN renal
UACC-62 melanoma = system: UACC-62 melanoma
CCRF-CEM leukemia = system: CCRF-CEM leukemia
A498 renal = system: A498 renal
SF-539 CNS = system: SF-539 CNS
HOP-92 NSCLC = system: HOP-92 NSCLC
NCI/ADR-RES ovarian = system: NCI/ADR-RES ovarian
MOLT-4 leukemia = system: MOLT-4 leukemia
K-562 leukemia = system: K-562 leukemia
OVCAR-5 ovarian = system: OVCAR-5 ovarian
OVCAR-4 ovarian = system: OVCAR-4 ovarian
SR leukemia = system: SR leukemia
KM12 colon = system: KM12 colon
PC-3 prostate = system: PC-3 prostate
CAKI-1 renal = system: CAKI-1 renal
IGROV1 ovarian = system: IGROV1 ovarian
786-0 renal = system: 786-0 renal
MALME-3M melanoma = system: MALME-3M melanoma
UO-31 renal = system: UO-31 renal
COLO 205 colon = system: COLO 205 colon
SK-MEL-2 melanoma = system: SK-MEL-2 melanoma
A549 NSCLC = system: A549 NSCLC
MDA-N = system: MDA-N
HT29 colon = system: HT29 colon
OVCAR-3 ovarian = system: OVCAR-3 ovarian
OVCAR-8 ovarian = system: OVCAR-8 ovarian
RXF 393 renal = system: RXF 393 renal
EKVX NSCLC = system: EKVX NSCLC
T-47D breast = system: T-47D breast
SK-MEL-5 melanoma = system: SK-MEL-5 melanoma
M14 melanoma = system: M14 melanoma
UACC-257 melanoma = system: UACC-257 melanoma
SNB-75 CNS = system: SNB-75 CNS
HCT-116 colon = system: HCT-116 colon
SK-OV-3 ovarian = system: SK-OV-3 ovarian
HS 578T breast = system: HS 578T breast
MDA-MB-231 breast = system: MDA-MB-231 breast
BT-549 breast = system: BT-549 breast
NCI-H460 lung = system: NCI-H460 lung
MCF7 breast = system: MCF7 breast
SNB-19 CNS = system: SNB-19 CNS
HCC-2998 colon = system: HCC-2998 colon

Nc1ccc2nc3n(c(=O)c2c1)CCCCC3
TGI (SN12C renal): > 100 µM | TGI (MDA-MB-435): > 100 µM | TGI (LOX IMVI melanoma): > 100 µM | TGI (RPMI-8226 leukemia): > 100 µM | TGI (HOP-62 NSCLC): > 100 µM | TGI (TK-10 renal): > 100 µM | TGI (HL-60(TB) leukemia): > 100 µM | TGI (DU-145 prostate): > 100 µM | TGI (SW-620 colon): > 100 µM | TGI (NCI-H522 lung): > 100 µM | TGI (NCI-H23 lung): > 100 µM | TGI (SF-295 CNS): > 100 µM | TGI (SK-MEL-28 melanoma): > 100 µM | TGI (U251 CNS): > 100 µM | TGI (NCI-H226 lung): > 100 µM | TGI (HCT-15 colon): > 100 µM | TGI (SF-268 CNS): > 100 µM | TGI (ACHN renal): > 100 µM | TGI (UACC-62 melanoma): > 100 µM | TGI (CCRF-CEM leukemia): > 100 µM | TGI (A498 renal): > 100 µM | TGI (SF-539 CNS): > 100 µM | TGI (HOP-92 NSCLC): > 100 µM | TGI (NCI/ADR-RES ovarian): > 100 µM | TGI (MOLT-4 leukemia): > 100 µM | TGI (K-562 leukemia): > 100 µM | TGI (OVCAR-5 ovarian): > 100 µM | TGI (OVCAR-4 ovarian): > 100 µM | TGI (SR leukemia): > 100 µM | TGI (KM12 colon): > 100 µM | TGI (PC-3 prostate): > 100 µM | TGI (CAKI-1 renal): > 100 µM | TGI (IGROV1 ovarian): > 100 µM | TGI (786-0 renal): > 100 µM | TGI (MALME-3M melanoma): > 100 µM | TGI (UO-31 renal): > 100 µM | TGI (COLO 205 colon): > 100 µM | TGI (SK-MEL-2 melanoma): > 100 µM | TGI (A549 NSCLC): > 100 µM | TGI (MDA-N): > 100 µM | TGI (HT29 colon): > 100 µM | TGI (OVCAR-3 ovarian): > 100 µM | TGI (OVCAR-8 ovarian): > 100 µM | TGI (RXF 393 renal): > 100 µM | TGI (EKVX NSCLC): > 100 µM | TGI (T-47D breast): > 100 µM | TGI (SK-MEL-5 melanoma): > 100 µM | TGI (M14 melanoma): > 100 µM | TGI (UACC-257 melanoma): > 100 µM | TGI (SNB-75 CNS): > 100 µM | TGI (HCT-116 colon): > 100 µM | TGI (SK-OV-3 ovarian): > 100 µM | TGI (HS 578T breast): > 100 µM | TGI (MDA-MB-231 breast): > 100 µM | TGI (BT-549 breast): > 100 µM | TGI (NCI-H460 lung): > 100 µM | TGI (MCF7 breast): > 100 µM

COP(=O)(OC)C(C)(C)NC(=O)NC(F)(F)F
TGI (SN12C renal): > 100 µM | TGI (MDA-MB-435): > 100 µM | TGI (LOX IMVI melanoma): > 100 µM | TGI (RPMI-8226 leukemia): > 100 µM | TGI (HOP-62 NSCLC): > 100 µM | TGI (TK-10 renal): > 100 µM | TGI (HL-60(TB) leukemia): > 100 µM | TGI (DU-145 prostate): > 100 µM | TGI (SW-620 colon): > 100 µM | TGI (NCI-H23 lung): > 100 µM | TGI (SF-295 CNS): > 100 µM | TGI (SK-MEL-28 melanoma): > 100 µM | TGI (U251 CNS): > 100 µM | TGI (NCI-H226 lung): 91.1 µM | TGI (HCT-15 colon): > 100 µM | TGI (SF-268 CNS): > 100 µM | TGI (ACHN renal): > 100 µM | TGI (UACC-62 melanoma): > 100 µM | TGI (CCRF-CEM leukemia): > 100 µM | TGI (SF-539 CNS): > 100 µM | TGI (NCI/ADR-RES ovarian): > 100 µM | TGI (MOLT-4 leukemia): > 100 µM | TGI (K-562 leukemia): > 100 µM | TGI (OVCAR-5 ovarian): > 100 µM | TGI (SNB-19 CNS): > 100 µM | TGI (OVCAR-4 ovarian): > 100 µM | TGI (SR leukemia): > 100 µM | TGI (KM12 colon): > 100 µM | TGI (PC-3 prostate): > 100 µM | TGI (CAKI-1 renal): 16.6 µM | TGI (IGROV1 ovarian): > 100 µM | TGI (786-0 renal): > 100 µM | TGI (MALME-3M melanoma): > 100 µM | TGI (UO-31 renal): > 100 µM | TGI (COLO 205 colon): > 100 µM | TGI (SK-MEL-2 melanoma): > 100 µM | TGI (A549 NSCLC): > 100 µM | TGI (MDA-N): > 100 µM | TGI (HT29 colon): > 100 µM | TGI (OVCAR-3 ovarian): > 100 µM | TGI (OVCAR-8 ovarian): > 100 µM | TGI (RXF 393 renal): > 100 µM | TGI (EKVX NSCLC): > 100 µM | TGI (T-47D breast): > 100 µM | TGI (SK-MEL-5 melanoma): > 100 µM | TGI (M14 melanoma): > 100 µM | TGI (UACC-257 melanoma): > 100 µM | TGI (SNB-75 CNS): > 100 µM | TGI (HCT-116 colon): > 100 µM | TGI (SK-OV-3 ovarian): > 100 µM | TGI (HCC-2998 colon): > 100 µM | TGI (HS 578T breast): > 100 µM | TGI (MDA-MB-231 breast): > 100 µM | TGI (BT-549 breast): > 100 µM | TGI (NCI-H460 lung): > 100 µM | TGI (MCF7 breast): > 100 µM
